Laboratory results reported in PMC11042424, “Development of a First-in-Class RIPK1 Degrader to Enhance Antitumor Immunity” (Research Square, 2024).
Where two headings read alike, the source gives them in different places.

Biological target: T1, nLuc-RIPK1 fusion protein (Homo sapiens, UniProt Q13546)
T1 construct: expressed in transfected cells
T1 sequence (Q13546 1-671): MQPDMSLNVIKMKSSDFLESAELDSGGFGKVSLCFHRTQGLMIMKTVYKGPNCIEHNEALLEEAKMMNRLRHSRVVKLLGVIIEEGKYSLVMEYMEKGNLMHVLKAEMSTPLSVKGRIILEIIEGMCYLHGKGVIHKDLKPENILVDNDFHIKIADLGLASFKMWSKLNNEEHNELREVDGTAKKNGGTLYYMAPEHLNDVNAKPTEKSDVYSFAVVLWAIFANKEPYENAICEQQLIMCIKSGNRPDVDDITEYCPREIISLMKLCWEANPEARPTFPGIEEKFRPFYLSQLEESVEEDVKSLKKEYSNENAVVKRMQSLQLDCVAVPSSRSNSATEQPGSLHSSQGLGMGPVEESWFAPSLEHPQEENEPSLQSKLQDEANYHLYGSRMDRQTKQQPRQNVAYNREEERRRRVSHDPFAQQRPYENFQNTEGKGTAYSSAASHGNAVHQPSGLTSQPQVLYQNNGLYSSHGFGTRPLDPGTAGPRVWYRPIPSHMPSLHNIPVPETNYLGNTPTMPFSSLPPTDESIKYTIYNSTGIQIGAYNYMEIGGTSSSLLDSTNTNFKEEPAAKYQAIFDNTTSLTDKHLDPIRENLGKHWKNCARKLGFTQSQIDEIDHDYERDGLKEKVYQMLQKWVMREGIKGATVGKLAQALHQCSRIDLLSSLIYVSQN
Experiment: NanoBRET based in-cell RIPK1 target engagement
Method: Figure 2 LD4172, a RIPK1 PROTAC, induces potent and highly specific degradation of RIPK1 in a panel of cell lines. A, Chemical structures of RIPK1 PROTAC, LD4172, and its negative control, LD4172-NC. […] B, Quantification of RIPK1 levels in both Jurkat and B16F10 cells treated with LD4172 at indicated concentrations for 24 h, followed by Western blotting. C, DC50 and Dmax of LD4172 in various human and mouse cell lines. DC50, the drug concentration causing 50% protein degradation; Dmax, the maximum level of protein degradation. D, RIPK1 degradation kinetics induced by LD4172 treatment (1 μM) and resynthesis kinetics upon washout of LD4172 in both Jurkat and B16F10 cells. E, Quantification of D. The degradation half-life of RIPK1 induced by LD4172 (1 μM) is <2 h in Jurkat and B16F10 cells. […] F, NanoBRET based in-cell RIPK1 target engagement. HEK293 cells were transfected with a plasmid expressing nLuc-RIPK1 fusion protein for 24 h, followed by incubating with a RIPK1 NanoBRET tracer (500 nM) and different concentrations of LD4172 and LD4172-NC (n=3). G, Time-resolved fluorescence resonance energy transfer (TR-FRET) based biochemical binding assay for RIPK1. GST-tagged human RIPK1 (1 nM), Tb-labeled anti-GST antibody (0.3 nM), a RIPK1 TR-FRET tracer (350 nM) and different concentrations of LD4172 (n=3) were incubated for 2 hours, followed by TR-FRET measurements with an excitation wavelength at 340 nm and emission wavelengths at 495 and 520 nm. H, NanoBRET based in-cell assay for ternary complex formation. HEK293T cells were co-transfected with nLuc-RIPK1 and VHL-HaloTag plasmids for 24 h, followed by treatment with indicated concentrations of LD4172 or LD4172-NC (n=3). I, LD4172 induced RIPK1 degradation depends on ternary complex formation, neddylation and proteasome activity. Representative immunoblots of RIPK1 in both Jurkat and B16F10 cells. Cells were treated with RIPK1 inhibitor (T2I), VHL ligand, a neddylation inhibitor (MLN4924) or a proteasome inhibitor (Carfilzomib) at indicated concentrations for 4 hours, followed by LD4172 treatment for 4 hours. J, Proteome profiling of LD4172 induced protein degradation. MDA-MB- 231 cells were treated with LD4172 (200 nM) or LD4172-NC (200 nM) for 6 h (n=3). In total, ~10,000 proteins were quantified in the proteomics experiment. […] Blue dots represent kinases that are inhibited by the warhead of LD4172 but not degraded by LD4172.
To elucidate the formation of a binary complex during RIPK1 degradation, we developed a competitive NanoBRET (Nano-Bioluminescence Resonance Energy transfer)-based target engagement (TE) assay to quantify the binding between RIPK1 and LD4172 in cells[12],[13]. First, we developed a RIPK1 tracer by conjugating the LD4172 warhead T2I with a BODIPY-590 fluorescent dye, dubbed T2–590 (refer to Supporting Information for details). The dissociation equilibrium constant (Kd) between the tracer and RIPK1 was determined to be 0.5 μM by titrating the tracer in HEK293T cells expressing a nLuc-RIPK1 fusion protein. […] This is usually expected, considering that the large molecular weight of LD4172 may lead to poor cellular permeability.

Question: Which Ki (Cheng-Prusoff equation, read-out: apparent Ki between compound and RIPK1 in the cells) does the source give for Cc1ncsc1-c1ccc([C@H](C)NC(=O)[C@@H]2C[C@@H](O)CN2C(=O)[C@@H](NC(=O)CCCCCCCCCCC(=O)NCCCn2cc(-c3ccc4c(c3)CCN4C(=O)Cc3cccc(OC(F)(F)F)c3)c3c(N)ncnc32)C(C)(C)C)cc1 [LD4172] here?
Answer: 1.9 µM

Question: And the IC50 (HEK293 cells, tracer 500 nM, n=3, read-out: IC50 (nM), Fig. 2F)?
Answer: 3750 nM

Question: What about the IC50 (tracer concentration at its Kd value, read-out: IC50, competition with tracer) of the same molecule?
Answer: 3700 nM
